Measured values: patent US12225903B2, “Synergistic cleaning disinfectant solution with enhanced stability, and methods of using the same” (Diversey, Inc., priority 2019, dated 2025)
Read-outs that look alike come from different tables or passages of the source.

Legend:
[1] = test system: fungus Aspergillus niger and yeast Saccharomyces cerevisiae; assay: Amount of antimicrobial acid required to pass EN1650:2008 (antifungal activity); format: cell-based; details: gluconic and salicylic acid used in combination
Source text: To pass the EN 1650:2008 antimicrobial testing protocol, a log reduction of greater than or equal to 4 must be achieved in fifteen minutes.

[2] = test system: bacteria Staphylococcus aureus, Escherichia coli, and Lactobacillus brevis; assay: Amount of antimicrobial acid required to pass EN1276:2009 (antibacterial activity); format: cell-based; details: gluconic and salicylic acid used in combination
Source text: To pass the EN1276 test method, a log reduction of greater than or equal to 5 must be achieved in five minutes.

[3] = in combination with gluconic acid

SMILES | Concentration of Antimicrobial Acids required to pass ([1]; Clean, 4° C.) | Concentration of Antimicrobial Acids required to pass ([1]; Clean, 25° C.) | Concentration of Antimicrobial Acids required to pass ([1]; Dirty, 4° C.) | Concentration of Antimicrobial Acids required to pass ([1]; Dirty, 25° C.) | Concentration of Antimicrobial Acids required to pass ([2]; Clean, 4° C.) | Concentration of Antimicrobial Acids required to pass ([2]; Clean, 25° C.) | Concentration of Antimicrobial Acids required to pass ([2]; Dirty, 4° C.) | Concentration of Antimicrobial Acids required to pass ([2]; Dirty, 25° C.) | required amount of salicylic acid in the disclosed cleaning disinfectant solution [3] | required amount of salicylic acid in the disclosed cleaning disinfectant solution ([3]; to pass EN1276:2009 and EN1650:2008)
O=C(O)[C@H](O)[C@@H](O)[C@H](O)[C@H](O)CO [Gluconic Acid, Gluconic acid] | 750 ppm | 600 ppm | 750 ppm | 750 ppm | 300 ppm | 150 ppm | 300 ppm | 150 ppm | – | –
O=C(O)c1ccccc1O [Salicylic Acid, Salicylic acid] | 188 ppm | 150 ppm | 188 ppm | 188 ppm | 75 ppm | 37 ppm | 75 ppm | 37 ppm | less than 2 % by weight | less than 2 wt %
